For 111 compounds, melting point results are on record in a melting point compilation (Tetko et al.).

As a reminder, the melting point is the temperature, or range, at which the solid turns liquid. Compound `N#Cc1cc(F)cc(Cl)c1` came in with a melting point of 57 °C.
The value for `O=C(c1ccccc1)c1ccc2c3c(cccc13)CC2` was 101 °C; that for `Cc1ccc(C(N)=O)cn1` was 197 °C; that for `CC(=O)/C=C1\NC(=O)c2ccccc21` was 108 °C.
The value for `Cn1c(=O)c(C2=NNC(=O)C2=Cc2ccccc2O)c(O)c2ccccc21` was 240 °C; that for `NS(=O)(=O)c1cc(Cl)ccc1F` was 135 °C.
For `NNC(=O)CNS(=O)(=O)c1cccc2nsnc12` the value was 151 to 153 °C.
As for `Brc1cccc2cc[nH]c12`, the melting point fell in the range of 46 to 47 °C.
For `FC(Br)C(F)(F)F` (stereo unspecified) the value was -80 °C; for `Cc1ccc(C(=O)c2cc3c(cc2Br)OCCO3)cc1`, 110 to 112 °C; for `CCOC(=O)C1=NN(c2ccccc2)C(=O)C1CC1C(=O)N(c2ccccc2)N=C1C(=O)OCC` (stereo unspecified), 179 °C.
The value for `CCOC(=O)CSc1nc(=O)[nH]c2c1CCCC2` was 192 to 193 °C.
For `CCCCCCCCCC(N)=O` the value was 108 °C.
As to `Clc1cc(Cl)c2c(c1)oc1c(Cl)cc(Cl)cc12`, the melting point was 177 °C.
For `O=C(c1ccc(O)c(O)c1)c1c(O)cc(O)cc1O`, the melting point was determined as 222 °C.
For `O=C(O)c1cnn(-c2ccc([N+](=O)[O-])cc2[N+](=O)[O-])c1` the value was 260 to 262 °C; for `O=C(C(C(F)(F)F)C(F)(F)F)N(Cc1ccccc1)Cc1ccccc1`, 76 °C.
The value for `COc1ccc(Br)c(OC)c1C(=O)O` was 146 to 148 °C; that for `Cc1cc(O)ccc1F` was 32 °C; that for `c1ccc2c(c1)OCCOCCOCCOCCOc1ccccc1OCCOCCO2` was 59 to 63 °C.
`COc1ccn(C)c(=O)c1C#N` had a melting point of 202 °C.
For `CSC(=Nc1nnc(-c2ccccc2)s1)SC` the value was 111 to 113 °C; for `CC1=CC(C(=O)O)c2ccccc21` (stereo unspecified), 139 °C; for `Cn1c(N)nc2ccccc21`, 203 to 206 °C.
For `CC(C)COc1ccc2ccccc2c1` the value was 31 °C.
For `S=C=Nc1cc(Cl)c(Cl)cc1Cl` the value was 45 °C; for `O=[N+]([O-])c1ccc(C#Cc2ccc([N+](=O)[O-])cc2S(=O)(=O)Oc2ccccc2)c(S(=O)(=O)Oc2ccccc2)c1`, 185 to 186 °C; for `CN(C)c1ccc(C(/C=C2\C=Cc3ccccc3N2)c2ccccc2)cc1` (stereo unspecified), 125 °C.
Regarding `C=CCc1c(N)c(C(C)=O)cc(C(C)=O)c1O`, the melting point is 99.5 to 102 °C.
For `CS[C@H]1C(=O)[C@@H]2CC[C@]3(C)[C@@H](OC(C)(C)C)CC[C@]13[C@H]2Cl` the value was 108 °C; for `O=C(Cl)c1cc(-c2ccc(Cl)cc2)oc1C(F)(F)F`, 135 to 137 °C.
For `COc1cccc2oc(-c3ccccc3)cc(=O)c12` the value was 130 °C; for `COC=C(C(=O)OC)C(=O)OC`, 43 °C.
The value for `CC1CCCC(C)C1` (stereo unspecified) was -90.1 °C.
The compound `NC(=S)c1ccc(OCC(F)(F)F)nc1` came in with a melting point of 120 to 123 °C.
For `O=C1CC(C(=O)O)CC(=O)C1=C(O)C1CC1` (stereo unspecified) the value was 144 °C; for `O=C1/C(=C\c2ccc(Cl)cc2)SC(=S)N1CN1CCOCC1`, 149 °C.
The compound `O=[N+]([O-])C=Cc1c(F)cccc1Cl` had a melting point of 63 °C.
For `CC(=O)Nc1c(I)c(NC(C)=O)c(I)c(C(=O)O)c1I` the value was 300 °C; for `CC(C)(C)c1cc(O)ccc1O`, 128 °C; for `N#Cc1cc(C#N)c(C#N)cc1C#N`, 267 to 270 °C.
For `COc1ccccc1-c1nnc2n1NC(c1ccc([N+](=O)[O-])cc1)S2` (stereo unspecified) the value was 196 °C; for `O=NN(c1ccccc1)c1ccccc1`, 66.5 °C; for `CC(C)C(C)(C)Cl`, -10 °C.
For `O=C(O)CC1C=CCC1` (stereo unspecified) the value was 19 °C; for `N#Cc1ccnc(N2CCCCC2)c1`, 55 to 57 °C; for `NC12c3ccccc3C(c3ccccc31)c1ccccc12`, 220 °C.
As to `Clc1ccc(C2C3CCc4ccccc4C3=NN2c2ccccc2)cc1` (stereo unspecified), the melting point was 168 to 170 °C.
`CC(=O)Nc1ccccc1/C=C\c1ccccc1` gave a melting point of 115 to 117 °C.
`Cc1csc(C)c1C` came in with a melting point of -26.2 °C.
As for `COc1ccc(C=C2SC(=S)N(CNc3ccc([N+](=O)[O-])cc3)C2=O)cc1`, the melting point is 176 °C.
For `CC(C)(CO)[N+](=O)[O-]` the value was 89.5 °C; for `N#Cc1cc(F)ccc1[N+](=O)[O-]`, 103 °C.
For `O=C1C(=C2C=Cc3ccc(O)cc3N2)C(=O)c2ccccc21` the value was 266 to 267 °C.
For `Cc1cc(NS(=O)(=O)c2ccc(N)cc2)sn1` the value was 192 °C; for `N#CCC[Si](Cl)(Cl)Cl`, 33 to 34 °C.
For `CCOC(=O)c1cnn(-c2ccccc2)c1N`, the melting point was 99.5 °C.
For `N#Cc1cccc2c1-c1ccccc1C2` the value was 77 to 79 °C.
For `CCOP(=O)(N=C1SCCS1)OCC` the value was 41 °C; for `CC(=O)Nc1ccc(Br)c(C(=O)O)c1`, 186 to 188 °C; for `O=C1CC(C(F)(F)F)=NN1c1ccccc1`, 193 °C.
For `CC(=O)NCC(=O)O` the value was 207 to 209 °C; for `O=C(NCCc1ccccn1)c1cc([N+](=O)[O-])cc([N+](=O)[O-])c1`, 120 °C; for `FC(F)(F)c1cccc(Br)n1`, 49.5 °C.
`Nc1cc2c(cc1C=Cc1ccccc1)CC(c1ccccc1)N2` (stereo unspecified) showed a melting point of 163 °C.
For `Cc1occc1C(=O)O` the value was 102 to 105 °C; for `CC(C)(C)S(=O)(=O)c1cnc(-c2ccccn2)nc1N`, 266 to 268 °C.
The value for `CC(=O)Nc1ccc(C)cc1Br` was 118 °C.
For `COc1ccc(C(C(=O)NCc2ccccc2)N(Cc2ccc(C)o2)C(=O)CNC(=O)OC(C)(C)C)cc1OC` (stereo unspecified) the value was 177 °C; for `Cc1nc(-c2ccc(Br)cc2)cs1`, 130 to 135 °C; for `CC1=C(CC(=O)O)c2cc(F)ccc2C1=Cc1ccc(S(C)=O)cc1` (stereo unspecified), 184 °C.
As for `CCOC(=O)c1cc(C)[nH]c(=S)c1C#N`, the melting point was found to be 214 °C.
The value for `Cc1cc(C(=O)O)n(C)n1` was 209 to 211 °C; that for `Oc1ccccc1C=NC1CCCCC1N=Cc1ccccc1O` (stereo unspecified) was 118 °C.
For `Cc1nc2ccccc2[nH]c1=O` the value was 270 °C.
For `Clc1ccc(I)cn1` the value was 97 °C; for `CCOc1ccc(NC(=O)OC(C)C)cc1OCC`, 100 °C.
With `CCCCC(C(N)=O)n1nc2ccccc2n1` (stereo unspecified), the melting point came out at 102 °C.
The value for `CCCCCCCCCCCCCCCC(N)=O` was 107 °C.
For `Cc1ccc(NN=c2c(C)nc3ccccc3[nH]c2=O)cc1` the value was 179 °C; for `c1ccc2c(c1)CCc1ccccc1C1(OCCO1)C21OCCO1`, 111 °C; for `Cc1ccc2nc(-c3ccc(N)cc3)sc2c1`, 195 °C.
Consider `COc1cc(F)c(OC)cc1F`, for which the melting point is 121 °C.
The value for `COc1ccc(C(O)(c2cc(OC)c(OC)c(OC)c2)c2ccc(OC)cc2OC)c(OC)c1` was 109 °C; that for `COCCOCCOCCO` was -44 °C; that for `S=C=Nc1ccccc1I` was 39 °C.
For `CC(C)CCCCCO`, the melting point was -106 °C.
In the case of `Cc1nccc2c1[nH]c1ccccc12`, the melting point is 236 °C.
For `COc1ccc(CC(N)=S)cc1OC` the value was 136 to 138 °C; for `FC(Cl)(Cl)CCl`, -140 °C; for `CC(CC(N)C(=O)O)C(F)(F)F` (racemic), 273 to 275 °C.
The value for `NC(=S)c1ccccc1Br` was 83 to 85 °C; that for `Cc1cc([N+](=O)[O-])ccc1N=C=S` was 82 to 84 °C; that for `CC(O)C1CCC2C3CCC4CC(O)CCC4(C)C3CCC12C` (stereo unspecified) was 245 °C.
For `CSc1cc(-c2ccc3ccccc3c2)c2c(=O)n(-c3ccccc3)n(C)c2c1` the value was 179 °C.
Compound `COc1ccc2c(c1)C(C(=O)O)C2` (stereo unspecified) displayed a melting point of 93 °C.
The value for `Nc1ccc(Nc2ccc([N+](=O)[O-])cc2[N+](=O)[O-])cc1` was 188 °C.
The value for `CC12CCC(/C(=C/N(OC(=O)c3ccc([N+](=O)[O-])cc3)c3ccccc3)C1=O)C2(C)C` (stereo unspecified) was 180 °C; that for `CCOC(=O)c1sc(SC)nc1NC(=O)Nc1ccc(Cl)c(Cl)c1` was 158 to 162 °C; that for `Cc1ccc(C#N)c(C#N)c1` was 118 to 121 °C.
The value for `COc1ccc(C=CC(=O)c2ccc3ccccc3c2)cc1` was 92 to 95 °C; that for `COc1ccc(Cl)c([N+](=O)[O-])c1` was 44 °C; that for `CCCCCCCCCCCCCCCCCCc1ccccc1` was 29 °C.
On to `CCCOC(=O)C(C)c1ccc(-c2ccccc2)c(F)c1` (stereo unspecified), for which the melting point is above 20 °C.
For `COc1cccc(N)c1C(=O)O` the value was 85 °C; for `Brc1cccc(COc2ccccc2)c1`, 38 to 39 °C; for `CCCCCC(=O)OCC(COC(=O)CCCCC)OC(=O)CCCCC`, -60 °C.
The value for `CCNC(=O)C(C)OC(=O)Nc1ccccc1` (stereo unspecified) was 119 °C; that for `C/C(=N\Nc1ccc([N+](=O)[O-])cc1[N+](=O)[O-])c1ccccc1O` was 259 °C; that for `CCCCC(=O)OCCC` was -70.7 °C.
Compound `NCCS(=O)(=O)O` yielded a melting point of 328 °C.
